Assay results from patent US7053078B2, “Serine protease inhibitors” (Eli Lilly and Company, priority 2000, dated 2006).

| Compound | melting point [°C] |
| --- | --- |
| COc1ccc(C(=O)N[C@@H](CNC(=O)C2CCN(C3CCCCC3)CC2)c2ccccc2)cc1 | 239 to 243 |
| COc1ccc(C(=O)N[C@@H](CNC(=O)C2CCN(C3CCCC3)CC2)c2ccccc2)cc1 | 253 to 257 |
| COc1ccc(C(=O)N[C@@H](CNC(=O)C2CCN(C3CCN(C)CC3)CC2)c2ccccc2)cc1 | 252 to 259 |
| CCN1CCC(C(=O)NC[C@H](NC(=O)c2ccc(OC)cc2)c2ccccc2)CC1 | 245 to 251 |
